# Data taken from ChEMBL document CHEMBL1138583, “Pharmacophore modeling study based on known spleen tyrosine kinase inhibitors together with virtual screening for identifying novel inhibitors” (Bioorg Med Chem Lett, 2009).
# Target: T1, Tyrosine-protein kinase SYK (Homo sapiens, UniProt P43405)
# Test: Inhibition of recombinant Syk
row,Structure (SMILES),IC50 [nM]
1,CCc1cccc(Nc2nc(NCCN)ncc2C(N)=O)c1,53
2,c1ccn(CCOc2ccc(Nc3nccc(-c4nccs4)n3)cc2)c1,500
3,Cc1ncc(C(N)=O)c(Nc2cccc(C(F)(F)F)c2)n1,5000
4,c1ccc(COc2ccc(Nc3nccc(-c4nccs4)n3)cc2)cc1,1000
5,NCCNc1ncc(C(N)=O)c(Nc2ccccc2)n1,280
6,COc1cc(Nc2nc(N[C@@H]3CCCC[C@@H]3N)n3cnnc3c2C(N)=O)cc(OC)c1,9
7,CC(C)c1cccc(Nc2nc(NCCN)ncc2C(N)=O)c1,92
8,COC(=O)c1ccc(COc2ccc(Nc3nccc(-c4nccs4)n3)cc2)cc1,2000
9,Cc1cc(Nc2nccc(-c3nccs3)n2)cc(C(F)(F)F)c1,110
10,c1cc(-c2nccs2)nc(Nc2ccc(OCC3CCCCC3)cc2)n1,2000
11,Cc1cc(C)cc(Nc2nc(N[C@H](CN)c3ccccc3)n3ccnc3c2C(N)=O)c1,21
12,c1cc(COc2ccc(Nc3nccc(-c4nccs4)n3)cc2)ccn1,2000
13,Cc1cc(Nc2nn(CC3CCCNC3)c(=O)c3ccccc23)[nH]n1 (stereo not drawn),6530
14,Cc1cc(C)cc(Nc2nccc(-c3nc(C)c(CCO)s3)n2)c1,32
15,COc1cc(Nc2nc(NC3CCCC[C@H]3N)n3cnnc3c2C(N)=O)cc(OC)c1 (stereo partly drawn),3.7
16,FC(F)(F)c1ccc(Nc2nccc(-c3nccs3)n2)cc1,500
17,COc1cc(Nc2nc(NC3CCCC[C@H]3N)n3nc(C)nc3c2C(N)=O)cc(OC)c1 (stereo partly drawn),11.2
18,CCc1cc(NCC(C)(C)N)n2nc(Nc3cc(OC)cc(OC)c3)c(C(N)=O)c2n1,3890
19,c1ccc(Oc2cccc(Nc3nccc(-c4nccs4)n3)c2)cc1,1000

row,Structure (SMILES),IC50 [nM]
1,CN(C)CCN(C)c1ncc(C(N)=O)c(Nc2cccc(C(F)(F)F)c2)n1,10000
2,c1c[nH]c(-c2ccnc(Nc3ccc(Oc4ccc5c(c4)OCO5)cc3)n2)c1,500
3,Cc1cccc(Nc2nc(N[C@@H]3CCCC[C@@H]3N)ccc2C(N)=O)c1,50
4,O=[N+]([O-])c1ccccc1COc1ccc(Nc2nccc(-c3nccs3)n2)cc1,2000
5,COc1cc(Nc2nc(N[C@@H]3CCCC[C@@H]3N)n3ncnc3c2C(N)=O)cc(OC)c1,4
6,CN(C)c1ccc(-c2cc3ncccc3c(NC(C)(C)CN)n2)cc1,310
7,Cc1cc(C)cc(Nc2nccc(-c3nc(C)cs3)n2)c1,56
8,COc1cc(Nc2nc(NC3CCCC[C@H]3N)n3ncnc3c2C(N)=O)cc(OC)c1 (stereo partly drawn),1
9,Cc1cc(Nc2nccc(-c3nc(C)c(CCO)s3)n2)cc(C(F)(F)F)c1,22
10,CCOc1cccc(Nc2nc(NCCN)ncc2C(N)=O)c1,81
11,Cc1ccc(C)c(Nc2nccc(-c3nccs3)n2)c1,1820
12,OCCCOc1cc(Nc2nccc(-c3nccs3)n2)cc(C(F)(F)F)c1,26
13,NC(=O)c1cncnc1Nc1cccc(C(F)(F)F)c1,5000
14,Cc1c(/C=C2/C(=O)Nc3ccc(S(N)(=O)=O)cc32)c2ccccc2n1C,4000
15,Cc1cc(Nc2nn(C(C)C)c(=O)c3cc(N4CCN(C)CC4)ccc23)[nH]n1,5360
16,COc1ccc(CNS(=O)(=O)c2ccc3c(c2)/C(=C/c2cn(C)c4ccc(OC)cc24)C(=O)N3)cc1,4000
17,COc1c(C[C@@H](C)OC(=O)Oc2ccc(O)cc2)c2c3c(C[C@@H](C)OC(=O)c4ccccc4)c(OC)c(=O)c4c(O)cc(OC)c(c5c(OC)cc(O)c(c1=O)c52)c43 [CALPHOSTIN C],1100
18,N#C/C(=C\c1ccc(O)c(O)c1)C(N)=S [TYRPHOSTIN 47],38000
19,CC(C)Oc1cccc(Nc2nc(NCCN)ncc2C(N)=O)c1,72

row,Structure (SMILES),IC50 [nM]
1,COCCOc1ccc2c(Nc3cc(C)[nH]n3)nn(C(C)C)c(=O)c2c1,894
2,Cc1cc(C)cc(Nc2nc(CC3CCCC[C@H]3N)n3ccnc3c2C(N)=O)c1 (stereo partly drawn),2.5
3,c1ccc2cc(Nc3nccc(-c4nccs4)n3)ccc2c1,2000
4,c1cncc(Oc2cccc(Nc3nccc(-c4nccs4)n3)c2)c1,500
5,NCCCNc1nc(-c2cccc(C(F)(F)F)c2)cc2ncccc12,830
6,NCCCNc1ncc(C(N)=O)c(Nc2cccc(C(F)(F)F)c2)n1,230
7,COc1cc(/C=C/[N+](=O)[O-])ccc1O,76000
8,COc1cc(Nc2nc(NC3CCCC[C@H]3N)n3nc(-c4cccc(O)c4)nc3c2C(N)=O)cc(OC)c1 (stereo partly drawn),7
9,Nc1ccccc1COc1ccc(Nc2nccc(-c3nccs3)n2)cc1,500
10,CS(=O)(=O)c1cccc(Oc2cccc(Nc3nccc(-c4nccs4)n3)c2)c1,500
11,c1ccc(COc2cccc(Nc3nccc(-c4nccs4)n3)c2)cc1,500
12,Oc1ccc(Nc2nccc(-c3nccs3)n2)cc1,500
13,COc1cc(/C=C/[N+](=O)[O-])ccc1OC(=O)c1ccccc1,3800
14,Fc1ccc(Nc2nccc(-c3nccs3)n2)cc1,1000
15,COC(=O)c1ccccc1-c1ccc(/C=C2/SC(=S)N(Cc3ccccc3)C2=O)o1,4000
16,Cc1cc(Nc2nn(C(C)C)c(=O)c3cc(N4CCOCC4)ccc23)[nH]n1,1100
17,N#Cc1cccc(Nc2nc(NCCN)ncc2C(N)=O)c1,110
18,COc1cc(Nc2nc(NC3CCCCC[C@H]3N)n3ccnc3c2C(N)=O)cc(OC)c1 (stereo partly drawn),1.6

# Target: T1, Tyrosine-protein kinase SYK
# Test: Inhibition of recombinant Syk at 10 uM
row,Structure (SMILES),inhibition [%]
1,O=C1NC(=O)N(c2cccc(Cl)c2)C(=O)/C1=C\Nc1ccc(Cl)cc1[N+](=O)[O-],51
2,COc1cccc2cc(C(N)=O)/c(=N/c3ccc(-c4ccccc4)cc3)oc12,63
